Results as given in article PMC8799717, “Pharmacological targeting PIKfyve and tubulin as an effective treatment strategy for double-hit lymphoma” (Cell Death Discovery, 2022).

Columns and labels:
Assay in all cases: biochemical
Design in all cases: KINOMEscan active-site-directed competition binding panel, 468 kinases, percent of DMSO control at 1 uM
Details in all cases: KINOMEscan binding, percent of DMSO control; read-out: Ctrl%
MRCKB = molecular target: T1, MRCKB (Homo sapiens, UniProt Q9Y5S2)
T1 construct: gene CDC42BPB

NEK11 = NEK11 (Homo sapiens, UniProt Q8NG66)
MET(M1250T) = MET(M1250T) (Homo sapiens, UniProt P08581, M1250T)
MEK4 = molecular target: T2, MEK4 (Homo sapiens, UniProt P45985)
T2 construct: gene MAP2K4

RIPK1 = RIPK1 (Homo sapiens, UniProt Q13546)
SRMS = SRMS (Homo sapiens, UniProt Q9H3Y6)
GSK3B = GSK3B (Homo sapiens, UniProt P49841)
PIK3CA(Q546K) = PIK3CA(Q546K) (Homo sapiens, UniProt P42336, Q546K)
NEK1 = NEK1 (Homo sapiens, UniProt Q96PY6)
EGFR(T790M) = EGFR(T790M) (Homo sapiens, UniProt P00533, T790M)
p38-alpha = molecular target: T3, p38-alpha (Homo sapiens, UniProt Q16539)
T3 construct: gene MAPK14

PIK3CA(M1043I) = PIK3CA(M1043I) (Homo sapiens, UniProt P42336, M1043I)
BRAF = BRAF (Homo sapiens, UniProt P15056)
CDK4-cyclinD3 = molecular target: T4, CDK4-cyclinD3 (Homo sapiens, UniProt P11802)
T4 construct: cyclinD3

LZK = molecular target: T5, LZK (Homo sapiens, UniProt O43283)
T5 construct: gene MAP3K13

PAK3 = PAK3 (Homo sapiens, UniProt O75914)
BMPR1A = BMPR1A (Homo sapiens, UniProt P36894)
PRKCI = PRKCI (Homo sapiens, UniProt P41743)
LKB1 = molecular target: T6, LKB1 (Homo sapiens, UniProt Q15831)
T6 construct: gene STK11

BRK = molecular target: T7, BRK (Homo sapiens, UniProt Q13882)
T7 construct: gene PTK6

TNNI3K = TNNI3K (Homo sapiens, UniProt Q59H18)
MYO3A = MYO3A (Homo sapiens, UniProt Q8NEV4)
GAK = GAK (Homo sapiens, UniProt O14976)
[1] = molecular target: T8, ABL1(T315I)-phosphorylated (Homo sapiens, UniProt P00519, T315I)
T8 construct: phosphorylated

T5 sequence (O43283 whole entry): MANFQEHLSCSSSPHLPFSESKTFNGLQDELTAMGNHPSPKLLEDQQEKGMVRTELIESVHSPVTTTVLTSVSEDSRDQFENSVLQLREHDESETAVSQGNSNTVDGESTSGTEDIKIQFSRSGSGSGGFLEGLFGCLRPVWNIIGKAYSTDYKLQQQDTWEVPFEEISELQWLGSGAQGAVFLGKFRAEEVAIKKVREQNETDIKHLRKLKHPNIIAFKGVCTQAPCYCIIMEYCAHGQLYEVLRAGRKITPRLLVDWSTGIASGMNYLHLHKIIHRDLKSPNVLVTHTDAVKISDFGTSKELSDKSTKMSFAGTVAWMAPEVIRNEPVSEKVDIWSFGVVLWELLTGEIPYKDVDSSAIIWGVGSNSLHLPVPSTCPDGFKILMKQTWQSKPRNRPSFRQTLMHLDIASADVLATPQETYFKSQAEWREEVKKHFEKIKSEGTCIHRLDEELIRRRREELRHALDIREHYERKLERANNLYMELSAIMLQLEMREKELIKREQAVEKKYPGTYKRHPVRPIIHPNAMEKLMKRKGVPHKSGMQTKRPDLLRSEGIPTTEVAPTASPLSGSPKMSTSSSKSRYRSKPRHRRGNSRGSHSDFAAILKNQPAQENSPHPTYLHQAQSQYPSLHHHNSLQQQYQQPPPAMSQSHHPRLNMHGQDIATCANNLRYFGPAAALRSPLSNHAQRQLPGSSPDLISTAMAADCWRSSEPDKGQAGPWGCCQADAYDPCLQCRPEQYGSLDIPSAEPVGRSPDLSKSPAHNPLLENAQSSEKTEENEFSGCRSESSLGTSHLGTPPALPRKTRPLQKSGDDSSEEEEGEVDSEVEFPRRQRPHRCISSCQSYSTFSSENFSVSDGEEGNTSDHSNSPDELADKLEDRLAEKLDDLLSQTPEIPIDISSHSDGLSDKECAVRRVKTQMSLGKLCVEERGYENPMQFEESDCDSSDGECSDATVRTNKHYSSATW
Sequence of SRMS (Q9H3Y6 whole entry): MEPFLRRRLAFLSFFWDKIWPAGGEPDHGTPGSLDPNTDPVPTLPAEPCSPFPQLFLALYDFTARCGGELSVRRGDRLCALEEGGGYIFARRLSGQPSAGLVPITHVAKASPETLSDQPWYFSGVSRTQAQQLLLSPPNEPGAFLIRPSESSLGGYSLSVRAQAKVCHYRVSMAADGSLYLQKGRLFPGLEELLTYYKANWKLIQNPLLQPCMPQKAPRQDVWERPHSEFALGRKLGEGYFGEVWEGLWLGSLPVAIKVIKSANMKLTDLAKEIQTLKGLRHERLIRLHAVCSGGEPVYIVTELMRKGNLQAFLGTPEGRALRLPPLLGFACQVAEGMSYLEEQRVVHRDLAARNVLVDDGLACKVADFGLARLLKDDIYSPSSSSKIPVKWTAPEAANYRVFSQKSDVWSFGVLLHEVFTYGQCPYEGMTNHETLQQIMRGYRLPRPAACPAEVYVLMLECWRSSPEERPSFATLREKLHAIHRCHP
T1 sequence (Q9Y5S2 whole entry): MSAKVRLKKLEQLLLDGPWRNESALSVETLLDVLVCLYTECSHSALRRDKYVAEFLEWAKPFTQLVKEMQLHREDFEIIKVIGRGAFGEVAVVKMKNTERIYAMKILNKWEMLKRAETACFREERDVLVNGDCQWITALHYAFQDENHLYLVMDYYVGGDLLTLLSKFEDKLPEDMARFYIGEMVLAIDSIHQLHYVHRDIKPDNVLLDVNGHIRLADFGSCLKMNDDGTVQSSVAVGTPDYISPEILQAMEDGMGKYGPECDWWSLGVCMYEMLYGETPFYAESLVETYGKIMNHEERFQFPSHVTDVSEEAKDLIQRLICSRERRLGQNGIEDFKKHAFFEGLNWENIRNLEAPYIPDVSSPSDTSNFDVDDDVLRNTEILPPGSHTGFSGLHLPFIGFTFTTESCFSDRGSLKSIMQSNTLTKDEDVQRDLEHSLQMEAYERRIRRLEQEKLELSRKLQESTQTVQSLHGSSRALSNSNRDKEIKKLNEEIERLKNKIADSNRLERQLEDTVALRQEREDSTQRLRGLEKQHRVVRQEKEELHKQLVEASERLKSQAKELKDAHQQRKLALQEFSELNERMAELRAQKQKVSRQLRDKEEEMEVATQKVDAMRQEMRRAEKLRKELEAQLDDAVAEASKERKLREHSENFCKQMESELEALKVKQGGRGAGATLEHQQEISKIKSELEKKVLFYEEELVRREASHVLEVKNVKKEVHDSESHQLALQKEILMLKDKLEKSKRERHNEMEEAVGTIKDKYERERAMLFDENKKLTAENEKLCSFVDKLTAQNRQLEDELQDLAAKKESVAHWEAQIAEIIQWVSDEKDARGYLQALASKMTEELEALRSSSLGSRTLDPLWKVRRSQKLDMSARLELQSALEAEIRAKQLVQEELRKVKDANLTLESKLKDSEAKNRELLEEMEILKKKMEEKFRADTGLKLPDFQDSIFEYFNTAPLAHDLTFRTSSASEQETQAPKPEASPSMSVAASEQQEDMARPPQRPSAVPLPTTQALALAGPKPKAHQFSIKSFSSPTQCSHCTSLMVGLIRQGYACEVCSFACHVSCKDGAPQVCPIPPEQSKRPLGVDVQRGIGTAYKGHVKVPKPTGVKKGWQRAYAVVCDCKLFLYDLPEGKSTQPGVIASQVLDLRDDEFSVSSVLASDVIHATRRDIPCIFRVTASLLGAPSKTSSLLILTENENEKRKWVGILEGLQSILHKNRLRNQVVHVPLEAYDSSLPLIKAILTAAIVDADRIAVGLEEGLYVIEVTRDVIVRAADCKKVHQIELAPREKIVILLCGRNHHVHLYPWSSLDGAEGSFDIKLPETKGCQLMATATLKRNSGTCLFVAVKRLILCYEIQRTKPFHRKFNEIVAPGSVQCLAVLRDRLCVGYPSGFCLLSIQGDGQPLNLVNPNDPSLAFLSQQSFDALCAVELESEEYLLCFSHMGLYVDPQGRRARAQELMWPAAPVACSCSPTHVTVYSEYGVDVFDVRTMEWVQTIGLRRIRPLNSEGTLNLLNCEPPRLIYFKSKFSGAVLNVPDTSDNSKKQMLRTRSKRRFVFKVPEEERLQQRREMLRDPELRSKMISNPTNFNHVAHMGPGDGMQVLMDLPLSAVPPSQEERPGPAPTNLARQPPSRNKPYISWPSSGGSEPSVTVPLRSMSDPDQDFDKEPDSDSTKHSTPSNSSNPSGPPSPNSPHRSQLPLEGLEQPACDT
Sequence of MET(M1250T) (P08581 whole entry M1250T): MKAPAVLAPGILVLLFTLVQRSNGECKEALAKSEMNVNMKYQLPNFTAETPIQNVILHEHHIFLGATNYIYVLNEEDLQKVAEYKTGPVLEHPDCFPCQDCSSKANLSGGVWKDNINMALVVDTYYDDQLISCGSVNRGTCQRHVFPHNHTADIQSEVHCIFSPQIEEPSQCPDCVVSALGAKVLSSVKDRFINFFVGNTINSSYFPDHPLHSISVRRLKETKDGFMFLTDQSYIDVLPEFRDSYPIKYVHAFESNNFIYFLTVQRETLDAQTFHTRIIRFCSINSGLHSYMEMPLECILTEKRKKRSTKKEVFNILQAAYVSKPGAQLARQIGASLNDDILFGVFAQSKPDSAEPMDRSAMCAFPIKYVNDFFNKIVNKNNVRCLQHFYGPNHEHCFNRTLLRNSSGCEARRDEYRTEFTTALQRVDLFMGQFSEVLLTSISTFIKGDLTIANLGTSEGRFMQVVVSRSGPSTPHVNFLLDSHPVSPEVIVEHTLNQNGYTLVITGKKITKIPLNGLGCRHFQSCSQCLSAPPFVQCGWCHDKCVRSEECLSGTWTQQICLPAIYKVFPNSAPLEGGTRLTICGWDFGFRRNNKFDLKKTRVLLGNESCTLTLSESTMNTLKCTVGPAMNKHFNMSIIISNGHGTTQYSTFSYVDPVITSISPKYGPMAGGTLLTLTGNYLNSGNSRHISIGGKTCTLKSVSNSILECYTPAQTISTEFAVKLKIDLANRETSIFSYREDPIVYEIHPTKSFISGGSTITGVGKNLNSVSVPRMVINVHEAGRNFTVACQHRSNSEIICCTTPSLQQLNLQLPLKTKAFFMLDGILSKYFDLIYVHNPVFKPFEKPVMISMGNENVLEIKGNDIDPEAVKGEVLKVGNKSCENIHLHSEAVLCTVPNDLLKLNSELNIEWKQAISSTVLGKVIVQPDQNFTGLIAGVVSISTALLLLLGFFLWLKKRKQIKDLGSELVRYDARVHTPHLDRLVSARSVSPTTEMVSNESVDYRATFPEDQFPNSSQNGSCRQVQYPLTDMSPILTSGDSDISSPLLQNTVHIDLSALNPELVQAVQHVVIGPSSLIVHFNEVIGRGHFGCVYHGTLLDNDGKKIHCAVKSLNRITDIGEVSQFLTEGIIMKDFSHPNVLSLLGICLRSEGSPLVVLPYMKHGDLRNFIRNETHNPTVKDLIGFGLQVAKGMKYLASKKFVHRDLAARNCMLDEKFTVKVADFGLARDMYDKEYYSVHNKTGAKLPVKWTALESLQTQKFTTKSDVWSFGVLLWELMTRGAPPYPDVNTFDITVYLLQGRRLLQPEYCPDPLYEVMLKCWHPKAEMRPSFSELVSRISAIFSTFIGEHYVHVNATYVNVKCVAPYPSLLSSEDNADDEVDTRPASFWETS
T7 sequence (Q13882 whole entry): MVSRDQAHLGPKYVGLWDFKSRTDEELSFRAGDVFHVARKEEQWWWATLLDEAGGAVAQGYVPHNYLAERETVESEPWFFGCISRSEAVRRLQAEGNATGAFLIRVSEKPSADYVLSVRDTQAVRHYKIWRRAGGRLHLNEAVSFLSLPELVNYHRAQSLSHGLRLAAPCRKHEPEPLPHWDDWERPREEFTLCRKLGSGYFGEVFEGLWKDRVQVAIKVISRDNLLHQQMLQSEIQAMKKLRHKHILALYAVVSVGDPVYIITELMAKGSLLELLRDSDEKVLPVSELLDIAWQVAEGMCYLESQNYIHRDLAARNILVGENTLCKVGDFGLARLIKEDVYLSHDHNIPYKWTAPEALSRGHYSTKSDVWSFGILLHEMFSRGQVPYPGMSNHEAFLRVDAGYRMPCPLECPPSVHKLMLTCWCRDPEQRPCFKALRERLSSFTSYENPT

Cc1ccc(NC(=O)c2cccc(C(F)(F)F)c2)cc1Nc1cc(-c2cccnc2)nc2[nH]ccc12 [HZX-02-059]
remaining binding at 1 µM (MRCKB): 100% | remaining binding at 1 µM (NEK11): 100% | remaining binding at 1 µM (MET(M1250T)): 100% | remaining binding at 1 µM (MEK4): 78% | remaining binding at 1 µM (RIPK1): 100% | remaining binding at 1 µM (SRMS): 100% | remaining binding at 1 µM (GSK3B): 83% | remaining binding at 1 µM (PIK3CA(Q546K)): 66% | remaining binding at 1 µM (NEK1): 78% | remaining binding at 1 µM (EGFR(T790M)): 94% | remaining binding at 1 µM (p38-alpha): 77% | remaining binding at 1 µM (PIK3CA(M1043I)): 92% | remaining binding at 1 µM (BRAF): 18% | remaining binding at 1 µM (CDK4-cyclinD3): 93% | remaining binding at 1 µM (LZK): 100% | remaining binding at 1 µM (PAK3): 27% | remaining binding at 1 µM (BMPR1A): 69% | remaining binding at 1 µM (PRKCI): 71% | remaining binding at 1 µM (LKB1): 72% | remaining binding at 1 µM (BRK): 83% | remaining binding at 1 µM (TNNI3K): 6.3% | remaining binding at 1 µM (MYO3A): 91% | remaining binding at 1 µM (GAK): 91% | remaining binding at 1 µM [1]: 98%
